# Results from ChEMBL document CHEMBL4706510, “Structure-based design, semi-synthesis and anti-inflammatory activity of tocotrienolic amides as 5-lipoxygenase inhibitors” (Eur J Med Chem, 2020).
# Calls of active or inactive are those of the source. The rule behind the calls is not given here.
# System: PMNL
# Assay: Induction of 15-HETE formation in human PMNL cells by RP-HPLC analysis
# Type: functional, cell-based
row,Compound,Activity
1,C/C(=C\CC/C(C)=C/CC[C@]1(C)CCc2c(C)c(O)cc(C)c2O1)CC/C=C(\C)C(=O)NCC1CCCCC1,Active
2,C/C(=C\CC/C(C)=C/CC[C@]1(C)CCc2c(C)c(O)c(C)c(C)c2O1)CC/C=C(\C)C(=O)NCC1CCCCC1,Active
3,C/C(=C\CC/C(C)=C/CC[C@]1(C)CCc2c(C)c(O)c(C)c(C)c2O1)CC/C=C(\C)C(=O)NCc1cccnc1,Active
4,COc1ccc(CNC(=O)/C(C)=C/CC/C(C)=C/CC/C(C)=C/CC[C@]2(C)CCc3c(C)c(O)c(C)c(C)c3O2)cc1,Active
